Where “and” joins values, the source holds several entries; their conditions need not be identical. Equal entries are not always repeated.

The values that follow come from US8119339B2, “Heteroduplex tracking assay” (priority 2000, dated 2012).

Experiment [1] deals with GHOST.CCR5 and GHOST.CXCR4 indicator cells (R5-tat, X4-tat). Description: Rapid Cell Fusion Assay for coreceptor utilization (CAT-ELISA). The format is cell-based. To be noted: cloned patient env gene expressed on HL3T1 cells, fusion for 48 hours. The text has this: Viral coreceptor usage was separately evaluated through the use of a Rapid Cell Fusion Assay. This assay enables determination of coreceptor usage from cloned HIV env gene sequences obtained directly from patient samples (e.g. blood, mucosal tissue). This method allows for greater efficiency in determination of viral coreceptor usage, by circumventing the need for cultivation of primary isolates. The Rapid Cell Fusion Assay can advantageously produce a result within one week after obtaining a patient sample. In addition, the Rapid Cell Fusion Assay allows study of patient-derived virus obtained from sites other than the peripheral blood, particularly those sites from which cultured virus cannot be obtained. For example, while circulating macrophages and CD4^+ T cells are the dominant reservoir of HIV-1, viral populations distinct from those in the peripheral blood exist in many reservoirs, including the genital tract.
The HL3T1 cell line was derived by stable transfection of parental HeLa cells with a chloramphenicol acetyltransferse (CAT) reporter construct containing a CAT gene is linked to an HIV-1 LTR promoter. The HL3T1 cells produce CAT protein only upon introduction of an active HIV-1 Tat protein. HL3T1 cells were transfected with a cloned env gene derived from a patient of interest. The cloned env gene product is expressed on the surface of the HL3T1 cells.
Indicator cell lines GHOST.CCR5 and GHOST.CXCR4 (respectively hereinafter “R5-tat” and “X4-tat”) cells were transfected with pSV2tat72, a construct expressing high levels of HIV-1 Tat under the control of the SV40 early promoter.
HL3T1 cells containing a cloned patient env gene were fused to R5-tat and X4-tat cells. Cell surface envelope protein variants will selectively interact with either CCR5 or CXCR4. Fusion only occurs when an HL3T1 envelope protein interacts with an indicator cell expressing a compatible coreceptor. Therefore, HL3T1 cells will fuse with either R5-tat and X4-tat, depending on the patient's env gene specificity. To initiate fusion, transfected HL3T1 and R5-tat or X4-tat cells were mixed in 6-well plates at 37° C. and allowed to fuse for 48 hours. To quantitate fusion, the cells were lysed with 0.5% NP-40. Fusion of HL3T1 cells to R5-tat or X4-tat activated CAT gene expression. Aliquots of the cell lysates were monitored for CAT production using a commercially available kit (CAT-ELISA, Boehringer Mannheim).
Twenty-five clones from each sample were analyzed to ensure that the fusion assay reflected the heterogeneous nature of HIV-1 populations.
(In general: In an ELISA, binding on a coated surface is turned into a signal by an enzyme label.)

The next experiment relates to HIV-1. The settings on record: Status before combination therapy, single patient, on the listed anti-HIV therapy.
In the next experiment the test system is CD4+ cells. The experiment can be described thus: CD4+ cell count in women before and after antiretroviral therapy. Format: in vivo, human. The settings on record: Status before combination therapy, single patient, on the listed anti-HIV therapy.
The subject of experiment [2] is HIV-1 strains using CCR5 versus CXCR4. Description: QXR, proportion of patient HIV-1 using CCR5. The format is in vivo, human. To be noted: Status before combination therapy, single patient, on the listed anti-HIV therapy. The protocol: To quantitate HIV-1 coreceptor use, inventors constructed a variable, λ, as the proportion of strains using CCR5. This variable has since been renamed QXR. […] QXR values were assessed by utilizing qualitative assay data derived from primary isolates, biologic clones, and sequences of the V3 portion of the env gene. […] Thus, for the vast majority of virions, each virion uses either CCR5 or CXCR4. This relationship can be stated as a mixture
D=QXR(CCR5)+(1−QXR)(CXCR4); 0≦QXR≦1, where D is the distribution of viral phenotypes. By design, it is a binomial population.
QXR values were constructed by relating data derived from the same patient sample by using three different analyses: biologic cloning, V3 sequencing of patient-derived molecular clones, and qualitative assays of primary isolates. To construct QXR values, inventors first calculated the proportion of biologic and, if available, molecular clones using CCR5 at each time point, then linked the proportion to the qualitative coreceptor use score (− to 3+) of primary isolates obtained simultaneously. Data that were not available were interpolated. […]
The large number of biologic and molecular clones permitted derivation of a system to quantitate the proportion of virus in a clinical specimen that uses each coreceptor. […] By applying this method, it was determined the proportion of virus using each coreceptor for each patient over time. […]

Experiment [3] concerns V3 region of the env gene. The experiment can be described thus: Coreceptor use predicted from V3 loop sequences of plasma HIV-1 RNA molecular clones. The settings on record: number of molecular clones of virion-derived plasma HIV-1 RNA. The source says:
HIV-1 virions were isolated from plasma samples as described (Fang et al. (1996) J. AIDS Hum. Retro. 12:352-7). Reverse transcriptase polymerase chain reaction amplification produced a 920-bp amplicon spanning the V3 region of the env gene. Reaction conditions were controlled rigorously to minimize recombination and other artifacts (Fang et al. (1996)). Amplified products were cloned into a TOPO™ TA vector (Invitrogen, Carlsbad, Calif.), verified by restriction digestion, and sequenced. Alignment of the sequences was initially done using the PILEUP program in the GCG Suite (Genetics Computer Group, Madison, Wis.), then checked manually. Envelope sequences were used to predict coreceptor use on the basis of the overall charge of the V3 loop and the presence of basic or acidic residues at positions […] (Bhattacharyya et al. (1996); and Hung et al. (1999)).
These sequences predicted a pattern of coreceptor use that essentially paralleled the one obtained by using viral culture (Table 2B, Coreceptor use determined by cocultivation of PBMCs vs. sequence analysis of plasma HIV-1 RNA). […] At each time point, coreceptor use was assayed by co-cultivating PBMCs and determining the V3 loop sequence of virion-derived HIV-1 RNA.

Description for CD4+ cells: Coreceptor use was examined in twenty-two women who participated in two prospective studies of HIV-1 infection. Nineteen were enrolled in the Bronx-Manhattan site of Women's Interagency HIV Study (WIHS), a National Institutes of Health (NIH) multicenter study of the natural history of HIV-1 infection in women. Three took part in a study of HIV-1 pathogenesis performed at the Wadsworth Center of the New York State Department of Health in Albany, N.Y. Both studies included individuals with a broad spectrum of HIV-1 disease. The institutional review boards at each clinical site and the New York State Department of Health approved the investigation. Each woman provided informed consent at enrollment.
To examine the effect of combination antiretroviral therapy on HIV-1 coreceptor use, women infected with CXCR4 strains were sought.
At that time, eight women were receiving antiretroviral therapy, primarily zidovudine monotherapy. While under study, however, 12 initiated new combination regimens; 9 received HAART (Group I) and 3 received two or more nucleoside analogues (Group II). […] In Table 1, “Before therapy” refers to data obtained at the visit immediately preceding initiation of new two or three drug antiretroviral therapy in Groups I & II. For Group III, data from the first time point are shown (a). “Follow-up” refers to data obtained at the first time point following the initiation of the anti-HIV therapy listed for Groups I & II.

Take “CTRPSNNRRKSIHKGDQDKHSMEHDDVIGDIRKARC [AF6P-7]”: in experiment [1], the CORECEPTOR entry was “negative”.
As for “CTRPNNNTKKSVHIGPGQAFYATGDIIGDIRQAYC [AF5P-6]”, in experiment [1], the CORECEPTOR result was “CCR5”.
As to “CTRPNNNTRKSVHIGPGQAFYATGDIIGNIRKAHC [AF3P-4]”, the CORECEPTOR entry in experiment [1] is “CCR5”.
Regarding “CTRPSNNRRKSIHMGPGQAFYGT.DDIIGGIRKARC [AF6P-11]”, the CORECEPTOR result in experiment [1] is “CCR5”.
Same read-out and setting: then “CTRPINNRRKSIHIGPGQAFYGT.DDIIGDIRQAHC [AF6P-10]”, with “CCR5”; and “CTRPNNNTITSIRIGPGQAFYATGSIIGNIRQAHC [AF9P2-3]”, with “CCR5”; and “........RKSVHIGPGQAFYATGDIIGNIRKAHC [AF3P-2]”, with “negative”.
Still for that read-out and setting: under “CIRPNNNTRTSIRIGPGQAFYATGNIIGGIRQAYC [AF2P12-2]” stands “CCR5”; under “CIRPNNNTRQSVHIGPGQALYTTEIIGDIRKAHC [AF7P-9]”, “CCR5”.
Consider “CIRPNNNTRTSIRIGPRQAFYATGNIIGDIRQAYC [AF2P12-10]”, for which the CORECEPTOR result in experiment [1] is “CXCR4”.
With “CTRPNNNTRKSVHIGPGQAFYATGDIIGNIRQAHC [AF3P-6]”, in experiment [1], the CORECEPTOR result is recorded as “CCR5”.
For “CTRPNNNTITSIRIGPGQAFYATGSIIGNTRQAHC [AF9P2-4]”, the CORECEPTOR result in experiment [1] is “CCR5”.
Take `Cc1cn([C@H]2C=C[C@@H](CO)O2)c(=O)[nH]c1=O` [d4T, stavudine]: the “HIV-1 RNA, log copies per ml” value with HIV-1 amounted to 5.28 log copies per ml. Moreover, in the experiment on CD4+ cells, the “CD4+ count, cells per mm3” value is recorded as 9 cells per mm3. Besides, in experiment [2], the “QXR, proportion of HIV-1 Using R5” value came to 0.36.
Take `Cc1cn([C@H]2C[C@H](N=[N+]=[N-])[C@@H](CO)O2)c(=O)[nH]c1=O` [AZT, zidovudine]: the “HIV-1 RNA, log copies per ml” value in the experiment on HIV-1 is 5.30 log copies per ml and 4.94 log copies per ml and 5.58 log copies per ml and 5.04 log copies per ml and 5.23 log copies per ml. Further, the “CD4+ count, cells per mm3” value with CD4+ cells is 188 cells per mm3 and 42 cells per mm3 and 259 cells per mm3 and 307 cells per mm3 and 43 cells per mm3. For the same molecule, in experiment [3], the “Distribution of Co-Receptor Use Predicted by V3 Loop Sequences, CCR5” value is reported as 9 and the “Distribution of Co-Receptor Use Predicted by V3 Loop Sequences, CXCR4” value is reported as 4. Moreover, the “QXR, proportion of HIV-1 Using R5” value in experiment [2] was 0.36 (2×) and 0.90 and 0.00 (2×).
Turning to “CIRPNNNTRTSIRIGPGQAFYATGNIVGDIRQAYC [AF2P12-11]”, the CORECEPTOR entry in experiment [1] is “CCR5”.
For the molecule “CTRPNNNTRKSVHIGPGQAFYATGDILGNIRQAHC [AF3P-11]”, the CORECEPTOR result in experiment [1] was “CCR5”.
With “CTRPNNNTRKSVHIGPGQAFYATGDIIGNMRKAHC [AF3P-12]”, the CORECEPTOR result in experiment [1] is recorded as “CCR5”.
Take “CTRPNNNTRKSVHIGPGQAFYATGDIIGDIRQAYC [AF5P-5]”: the CORECEPTOR result in experiment [1] is on record as “CCR5”.
The same measure, in the same setting: then “CTRPNDNIRKSVHIGPGQAFYATGDIIGDIRRAHC [AF10P97-2]”, with “CCR5”.
“CTRPNDNIRKRVHIGPGQAFYATGDVIGDIRRAHC [AF10P97-4]”: in experiment [1], the CORECEPTOR entry is listed as “CXCR4”.
As to “CTRPNNNTRKSVHIGLGQAFYATGDIIGNIRKAHC [AF3P-9]”, the CORECEPTOR result in experiment [1] was “CCR5”.
Take “CIRPNNNTRTSIRIGPGQAFYATGNIIGDIRQAYC [AF2P12-12]”: in experiment [1], the CORECEPTOR entry was “CCR5”.
“CTRPSNNRRKSIHMGPGQAFYGT.DDIIGDIRKARC [AF6P-12]”: in experiment [1], the CORECEPTOR entry is reported as “CCR5”.
In the case of “CTRPINNRRKSIHMGPGQAFYGT.DDIIGDIRKARC [AF6P-1]”, in experiment [1], the CORECEPTOR result is given as “CCR5”.
